Data taken from article PMC10574154, “Antioxidant and Anti-Aging Phytoconstituents from Faucaria tuberculosa: In Vitro and In Silico Studies” (Molecules, 2023).
Converted amounts (≈) assume the structure as drawn.

Columns and labels:
[1] = ABTS radical scavenging assay; assay type: biochemical; conditions: mean ± SD (n = 3)
[2] = Ferric reducing/antioxidant power (FRAP) assay; assay type: biochemical; conditions: mean ± SD (n = 3)
Description: The antioxidant activity of the isolated compounds was determined using ABTS and FRAP assays in triplicate, and the average values were considered.
Herein, antioxidant potential was measured based on the samples’ ability to reduce ferric to ferrous ion. This method relies on the reduction of ferricyanide relative to the sample. Samples (1 mL) were mixed with 2.5 mL of each of sodium phosphate buffer and K3Fe (CN)6, and then the reaction mixture was incubated (50 °C, 20 min). Afterward, 2.5 mL of trichloroacetic acid was added, and centrifugation (1000× g, 10 min) was carried out. Some 2.5 mL of the supernatant solution and an equal amount of deionized H2O and 0.5 mL of ferric chloride were then mixed, and the absorbance was recorded at 700 nm.

Row | SMILES | IC50 Value ABTS Assay [1] | IC50 Value FRAP Assay [2]
1 | O=C1O[C@H]([C@@H](O)CO)C(O)=C1O [Ascorbic acid, reference compound] | 10.67 ± 0.85 µg/mL (≈ 60.6 µM) | 20.86 ± 1.28 µg/mL (≈ 118 µM)
2 | OC[C@H]1O[C@@H](Oc2cc(O)cc(O)c2)[C@H](O)[C@@H](O)[C@@H]1O [Compound 2, 3,5-dihydroxyphenyl β-D-glucopyranoside] | 43.40 ± 3.18 µg/mL (≈ 151 µM) | 64.52 ± 4.15 µg/mL (≈ 224 µM)
3 | COc1cc(-c2oc3cc(O)cc(O)c3c(=O)c2OC2OC(COC3OC(C)C(OC4OC(C)C(O)C(O)C4O)C(O)C3O)C(O)C(O)C2O)ccc1O (stereo not drawn) [Compound 5, Isorhamnetin 3-O-[α-rhamnopyranosyl-(1→4)-α-rhamnopyranosyl-(1→6)-β-glucopyranoside]] | 18.19 ± 2.94 µg/mL (≈ 23.6 µM) | 35.04 ± 2.89 µg/mL (≈ 45.5 µM)
4 | Oc1cc(O)cc(O)c1 [Compound 1, phloroglucinol] | 6.44 ± 0.47 µg/mL (≈ 51.1 µM) | 12.89 ± 0.93 µg/mL (≈ 102 µM)
5 | COc1cc(-c2oc3cc(O)cc(O)c3c(=O)c2OC2OC(COC3OC(C)C(O)C(O)C3O)C(O)C(O)C2O)ccc1O (stereo not shown) [Compound 3, isorhamnetin 3-O-rutinoside] | 12.24 ± 0.61 µg/mL (≈ 19.6 µM) | 25.24 ± 2.03 µg/mL (≈ 40.4 µM)
